Results as given in publication PMC11801715, “Activating PKC-ε induces HIV expression with improved tolerability” (PLOS Pathogens, 2025).
Several values for one entry are separate records, joined by “and”; a condition that tells them apart may be missing. Equal entries are not always repeated. Where two headings read alike, the source gives them in different places.

Key:
CD69 on CD4+ T cells = test: CD4+ T-cell activation flow cytometry (CD69); assay type: cell-based; details: Homo sapiens; CD4+ T cells from ART-suppressed people with HIV; read-out: EC50, activation of CD69 expression
Description: Sixteen hours post treatment with PKC agonists, cellular activation of 100,000 CD4^+ T cells, taken from the above ex vivo HIV activation cultures, was assessed using flow cytometry. Cell surface expression of CD69 was measured on CD4^+ T cells using anti-human CD3 (UCHT1), CD4 (SK3) and CD69 (FN50) antibodies and standard flow staining methods. Stained cells were acquired on the Becton Dickinson (BD) LSR Fortessa II flow cytometer and results were analyzed using FlowJo software.

Plasma PK in rats = assay type: in vivo, rat; details: slow IV infusion
Description: (§1) Wild-type male Sprague Dawley (Hsd: Sprague Dawley SD) rats (8–15 weeks old) were sourced from the Covance stock colony for conduct of in vivo studies at Covance Laboratories Inc. (Madison, Wisconsin, USA). Rats were administered a single dose of vehicle control (n = 3), or 0.1, 0.3, 1, or 3 mg/kg C-232A (n = 6), or 10 mg/kg C-233 by intravenous infusion over 30 minutes. Blood samples were collected through 24 hours postdose. Samples for PK measurement of C-232A concentration were processed to plasma and shipped to Gilead Sciences (Foster City, California, USA). Samples were analyzed at Covance Laboratories for hematology and clinical chemistry panels. At unscheduled necropsy (3 mg/kg C-232A), tissues were preserved in 10% neutral-buffered formalin, embedded in paraffin, mounted on slides, and stained with hematoxylin and eosin. Tissues were then evaluated independently (Experimental Pathology Laboratories, Inc).
Rat and rhesus plasma samples (20 µL aliquot of each) were treated with 100 µL acetonitrile containing a generic internal small-molecule standard. […] The descriptive PK parameters were analyzed using noncompartmental analysis with Phoenix WinNonlin software (version 8.2, Certara USA, Inc.). The area under the plasma concentration–time curve (AUClast) values were calculated using the linear trapezoid method.

[1] = tested on: latent HIV in total CD4+ T cells; test: microbe, parasite or virus in culture; assay type: cell-based, HIV-1; details: for EC50: Human immunodeficiency virus 1, CD4+ T
Description: Peripheral blood mononuclear cells and CD4^+ T cells used for evaluating PKC agonist and inhibitor molecules were isolated from leukopaks of selected participants as described previously. Isolated CD4^+ T cells (5×10^6 cells/well) were added to 24-well tissue culture plates in 2.5 mL of RPMI medium containing 100 nM each of elvitegravir and efavirenz. Cells were stimulated with DMSO (vehicle control) or the indicated concentrations of PKC agonist molecules. Cells were pretreated with PKC isoform inhibitors (Selleck Chemicals) for 1 hour before addition of PKC agonist at indicated concentrations and maintained at 37 °C, 5% CO2 for 3 days. Cell supernatants from each well were analyzed using the Cobas […] system for quantification of HIV-1 RNA using the HIV-1 test v2.0 kit (Roche Diagnostics).

Sprague Dawley rats = test: In vivo rat study: tolerability, clinical pathology, histopathology
Description: as §1

platelet-rich plasma = test: Platelet aggregation assay (light transmittance aggregometry); assay type: cell-based, human
Description: Given that C-232A induced DIC in rats and monkeys, we tested whether C-232A could directly induce platelet activation and downstream aggregation. […] Adenosine diphosphate, a known platelet agonist, was used as a positive control (S7A Fig).
Aggregation of platelets was assessed using light transmittance aggregometry using standard methods.
(A) Assay principle for platelet aggregation assay.

[2] = tested on: EGR1 and CD69 mRNA in whole blood; test: EGR1 and CD69 mRNA levels in rat blood (QuantiGene); assay type: in vivo
Description: EGR1 and CD69 mRNA expression levels were measured in whole blood, processed using Affymetrix QuantiGene Sample Processing Kit (Thermo Fisher Scientific, catalog QS0111). Quantigene multiplex analysis was performed on 1:3 diluted blood using probes specific for rat EGR1 (Thermo Fisher Scientific, catalog nm_012551) and CD69 (catalog nm_134327), as per the kit’s instructions (Thermo Fisher Scientific, catalog QP-1014) and normalized to PPIB (catalog nm_022536) and β-actin (catalog nm_031144).

PKC-δ = PKC-δ (Homo sapiens, UniProt Q05655); test: PKC isoform translocation in A549-tGFP cells; assay type: cell-based; set-up: host or cells: A549; details: for EC50: A549-tGFP cells, 60 minutes, read-out: EC50 for PKC-δ translocation; for ε selectivity, PKC-δ: EC50 of PKC-δ divided by EC50 of PKC-ε
PKC-δ, sequence (Q05655 whole entry, canonical isoform): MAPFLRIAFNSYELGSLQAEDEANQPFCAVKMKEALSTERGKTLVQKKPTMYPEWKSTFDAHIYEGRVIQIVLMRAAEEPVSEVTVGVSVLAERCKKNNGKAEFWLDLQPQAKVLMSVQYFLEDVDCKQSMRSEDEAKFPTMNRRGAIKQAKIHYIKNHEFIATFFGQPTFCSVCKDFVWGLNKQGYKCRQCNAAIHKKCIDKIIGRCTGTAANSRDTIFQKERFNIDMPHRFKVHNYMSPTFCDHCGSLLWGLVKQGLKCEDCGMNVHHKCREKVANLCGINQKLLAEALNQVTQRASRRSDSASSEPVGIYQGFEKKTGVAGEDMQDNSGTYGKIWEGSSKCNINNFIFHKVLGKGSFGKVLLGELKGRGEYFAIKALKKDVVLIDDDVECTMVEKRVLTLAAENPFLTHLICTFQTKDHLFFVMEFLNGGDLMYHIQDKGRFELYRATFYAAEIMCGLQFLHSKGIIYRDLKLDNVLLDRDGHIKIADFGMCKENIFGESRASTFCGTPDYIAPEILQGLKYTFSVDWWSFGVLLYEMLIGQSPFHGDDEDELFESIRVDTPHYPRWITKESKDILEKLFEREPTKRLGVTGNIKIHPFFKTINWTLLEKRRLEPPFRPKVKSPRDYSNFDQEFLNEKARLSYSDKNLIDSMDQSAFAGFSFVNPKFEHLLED
Description: (§2) A description of this effort is reported elsewhere.
(§3) Cellular translocation of PKC isoforms upon activation was determined in 8 A549 cell lines, each expressing a single PKC isoform fused to tGFP (PhenoVista Biosciences). Cells were plated in 384-well plates (80 μL/well) at 10^5 cells/mL in RPMI with 10% FBS and rested overnight. PKC agonist(s) were serially diluted at 1:3 steps in DMSO and added to the cells. After 60 minutes in an incubator at 37 °C, 5% CO2, cells were stained with Hoechst-33342 and fixed with 2% paraformaldehyde for 30 minutes at 4 °C. Cells were then stained with wheat germ agglutinin conjugated to AlexaFluor647 (WGA-647) for 10 minutes at 4 °C, washed to remove excess dye and imaged with Cellomics Array Scan (Thermo Fisher) at room temperature (RT). Images were analyzed using Cellomics automated image analysis algorithm. Plasma membrane translocation was quantified using the ratio between the average fluorescence in the areas at the cell edge defined by WGA-647 and the cytoplasm region.

PKC-η = PKC-η (Homo sapiens, UniProt P24723); test: PKC isoform translocation in A549-tGFP cells; assay type: cell-based; set-up: host or cells: A549; details: for EC50: A549-tGFP cells, 60 minutes; for ε selectivity, PKC-η: EC50 of PKC-η divided by EC50 of PKC-ε
PKC-η, sequence (P24723 whole entry, canonical isoform): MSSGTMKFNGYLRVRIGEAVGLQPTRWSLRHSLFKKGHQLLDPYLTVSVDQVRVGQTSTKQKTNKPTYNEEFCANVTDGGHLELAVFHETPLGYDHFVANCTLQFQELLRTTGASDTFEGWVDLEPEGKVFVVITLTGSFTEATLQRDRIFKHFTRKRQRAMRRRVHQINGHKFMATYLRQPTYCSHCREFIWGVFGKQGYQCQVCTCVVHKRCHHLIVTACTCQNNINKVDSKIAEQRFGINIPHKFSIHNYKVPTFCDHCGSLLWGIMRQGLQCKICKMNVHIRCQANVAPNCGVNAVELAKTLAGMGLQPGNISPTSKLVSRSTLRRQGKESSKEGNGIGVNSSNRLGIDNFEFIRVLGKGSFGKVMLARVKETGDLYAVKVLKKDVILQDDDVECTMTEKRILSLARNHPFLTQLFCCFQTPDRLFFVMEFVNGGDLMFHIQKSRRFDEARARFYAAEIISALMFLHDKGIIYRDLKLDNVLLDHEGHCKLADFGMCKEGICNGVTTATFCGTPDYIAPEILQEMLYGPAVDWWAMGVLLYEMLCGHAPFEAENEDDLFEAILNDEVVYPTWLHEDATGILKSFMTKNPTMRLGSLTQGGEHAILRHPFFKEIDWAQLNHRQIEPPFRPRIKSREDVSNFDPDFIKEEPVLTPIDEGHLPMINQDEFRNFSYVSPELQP
Description: as §2, §3

PKC-θ = PKC-θ (Homo sapiens, UniProt Q04759); test: PKC isoform translocation in A549-tGFP cells; assay type: cell-based; set-up: host or cells: A549; details: for EC50: A549-tGFP cells, 60 minutes; for ε selectivity, PKC-θ: EC50 of PKC-θ divided by EC50 of PKC-ε
PKC-θ, sequence (Q04759 whole entry, canonical isoform): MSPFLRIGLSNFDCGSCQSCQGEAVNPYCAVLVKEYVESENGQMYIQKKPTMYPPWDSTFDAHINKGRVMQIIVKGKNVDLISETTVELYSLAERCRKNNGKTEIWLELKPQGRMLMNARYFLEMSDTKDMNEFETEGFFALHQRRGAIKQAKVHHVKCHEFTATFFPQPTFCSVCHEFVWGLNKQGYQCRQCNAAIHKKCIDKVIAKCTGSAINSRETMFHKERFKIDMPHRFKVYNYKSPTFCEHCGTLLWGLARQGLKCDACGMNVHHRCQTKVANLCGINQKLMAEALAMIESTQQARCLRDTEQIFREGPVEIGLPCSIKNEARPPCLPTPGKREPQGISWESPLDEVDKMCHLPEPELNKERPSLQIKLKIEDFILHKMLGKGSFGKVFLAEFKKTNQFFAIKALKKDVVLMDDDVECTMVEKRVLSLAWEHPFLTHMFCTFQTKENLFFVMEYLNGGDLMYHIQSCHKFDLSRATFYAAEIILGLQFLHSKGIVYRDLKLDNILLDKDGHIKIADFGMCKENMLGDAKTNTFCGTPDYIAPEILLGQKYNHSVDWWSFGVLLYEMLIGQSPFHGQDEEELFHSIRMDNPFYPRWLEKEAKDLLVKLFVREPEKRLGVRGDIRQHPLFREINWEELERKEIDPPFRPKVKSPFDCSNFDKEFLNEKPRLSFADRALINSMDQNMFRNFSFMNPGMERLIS
Description: as §2, §3

With `Cc1ccc(C#Cc2ccc(C(=O)OCC3(CO)Cc4c(-c5ccccc5)ccnc4O3)cc2)cc1` (stereo not drawn) [C-233] the EC50 (CD69 on CD4+ T cells) was 99 nM, the PK profile (Plasma PK in rats; 1, 3, and 10 mg/kg, n = 3 male rats/group) was “Dose-dependent increases in the PK profile” and the “HIV RNA Fold over DMSO Geo.mean” value ([1]; 1.1 μM (Fig 10C)) was 9.2 fold and 9 fold. For the same compound, the EC50 ([1]; 72 h, read-out: HIV RNA EC50) was 296 nM, the “platelets and mean platelet volume” value (Sprague Dawley rats; 10 mg/kg) was “without any significant depletion of platelets or increased mean platelet volume” and the adverse events (Sprague Dawley rats; 10 mg/kg, single IV infusion) was “no adverse events were observed”. For the same compound, the “relative potency for platelet aggregation” value (platelet-rich plasma) was “less potent than C-232A and prostratin”, the “platelet aggregation at concentrations below 10 μM” value (platelet-rich plasma; 20-minute stimulation) was “little or no aggregation” and the “EGR1 and CD69 mRNA induction versus C-232A (1 mg/kg)” value ([2]; 10 mg/kg) was “higher induction of EGR1 and CD69 mRNA levels”. The EC50 (PKC-δ) was 47000 nM, the “ε selectivity, PKC-δ” value (PKC-δ) was 196 and the EC50 (PKC-η) was 1100 nM. For the same compound, the “ε selectivity, PKC-η” value (PKC-η) was 5, the EC50 (PKC-θ) was 1500 nM and the “ε selectivity, PKC-θ” value (PKC-θ) was 6.
For `Cc1ccc(C#Cc2ccc3oc(CC(C)(C)C(=O)OCC4(CO)CC(=CCC(CC(C)C)CC(C)C)C(=O)O4)cc3c2)cc1` (stereo not drawn) [C-232A], the EC50 (CD69 on CD4+ T cells) was 57 nM, the PK plasma profile (Plasma PK in rats; 0.1, 0.3, 1, and 3 mg/kg) was “dose-dependent C-232A PK plasma profiles” and the EC50 ([1]; read-out: EC50, activation of HIV expression) was 500 nM. The “rats euthanized due to severe clinical signs” value (Sprague Dawley rats; 1 mg/kg, single IV infusion) was 1 of the 6 and 1 of 6, the histopathology (Sprague Dawley rats; 3 mg/kg) was “thrombi associated with congestion and hemorrhage in the lung and brain” and the “outcome (moribund condition)” value (Sprague Dawley rats; 3 mg/kg, single IV infusion, n = 6) was “euthanized within 6 hours postdose”. For the same compound, the tolerability (Sprague Dawley rats; 0.1 and 0.3 mg/kg, single IV infusion, 6 rats) was “well tolerated”, the circulating platelet counts (Sprague Dawley rats; higher doses) was < 100,000 platelets/µL and the mean platelet volume (Sprague Dawley rats; higher doses) was over 15 fL. The “relative potency for platelet aggregation” value (platelet-rich plasma) was “less potent than prostratin”, the platelet aggregation (platelet-rich plasma; dilution series, 20 minutes) was “stimulated platelet aggregation” and the “EGR1 and CD69 transcription” value ([2]; 0.1-3 mg/kg) was “dose-dependent increases in EGR1 and CD69 transcription”. The EC50 (PKC-δ) was 714 nM and 710 nM, the “ε selectivity, PKC-δ” value (PKC-δ) was 12 and the EC50 (PKC-η) was 100 nM. For the same compound, the “ε selectivity, PKC-η” value (PKC-η) was 2, the EC50 (PKC-θ) was 176 nM and 180 nM and the “ε selectivity, PKC-θ” value (PKC-θ) was 3.
